Source: ChEMBL document CHEMBL5465560, “Selectivity Literature for EUbOPEN Chemogenomic Library” (2024)

What was measured:
[1] = target: cGMP-inhibited 3',5'-cyclic phosphodiesterase 3A (Homo sapiens, UniProt Q14432); assay: Selectivity interaction (Safety Panel 44tm (Eurofins)) EUB0000162b PDE3A; settings: at 10 µM
[2] = target: Ephrin type-A receptor 7 (Homo sapiens) (UniProt Q15375); assay: Selectivity interaction (KinomeScan (DiscoverX)) EUB0000666a EPHA7; settings: at 10 µM
[3] = target: Casein kinase I isoform delta (Homo sapiens, UniProt P48730); assay: Selectivity interaction (KinomeScan (DiscoverX)) EUB0000229b CSNK1D; settings: at 10 µM
Chain of Casein kinase I isoform delta (P48730 whole entry, looked up, canonical isoform): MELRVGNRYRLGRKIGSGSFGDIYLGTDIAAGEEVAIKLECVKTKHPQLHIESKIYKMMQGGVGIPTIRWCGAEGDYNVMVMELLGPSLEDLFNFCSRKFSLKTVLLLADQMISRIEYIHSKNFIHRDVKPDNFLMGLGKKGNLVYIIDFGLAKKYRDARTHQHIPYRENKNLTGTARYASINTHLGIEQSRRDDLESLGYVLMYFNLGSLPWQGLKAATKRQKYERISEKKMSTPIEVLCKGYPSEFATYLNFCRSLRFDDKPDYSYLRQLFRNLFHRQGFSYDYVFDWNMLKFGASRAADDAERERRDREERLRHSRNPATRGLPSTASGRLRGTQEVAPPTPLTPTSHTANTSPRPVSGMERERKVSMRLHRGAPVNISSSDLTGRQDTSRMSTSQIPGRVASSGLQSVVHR

[4] = target: T1, Serine/threonine-protein kinase D3 (Homo sapiens) (UniProt O94806); assay: Selectivity interaction (KinomeScan (DiscoverX)) EUB0000229b PRKD3; settings: at 10 µM
T1 sequence (whole entry): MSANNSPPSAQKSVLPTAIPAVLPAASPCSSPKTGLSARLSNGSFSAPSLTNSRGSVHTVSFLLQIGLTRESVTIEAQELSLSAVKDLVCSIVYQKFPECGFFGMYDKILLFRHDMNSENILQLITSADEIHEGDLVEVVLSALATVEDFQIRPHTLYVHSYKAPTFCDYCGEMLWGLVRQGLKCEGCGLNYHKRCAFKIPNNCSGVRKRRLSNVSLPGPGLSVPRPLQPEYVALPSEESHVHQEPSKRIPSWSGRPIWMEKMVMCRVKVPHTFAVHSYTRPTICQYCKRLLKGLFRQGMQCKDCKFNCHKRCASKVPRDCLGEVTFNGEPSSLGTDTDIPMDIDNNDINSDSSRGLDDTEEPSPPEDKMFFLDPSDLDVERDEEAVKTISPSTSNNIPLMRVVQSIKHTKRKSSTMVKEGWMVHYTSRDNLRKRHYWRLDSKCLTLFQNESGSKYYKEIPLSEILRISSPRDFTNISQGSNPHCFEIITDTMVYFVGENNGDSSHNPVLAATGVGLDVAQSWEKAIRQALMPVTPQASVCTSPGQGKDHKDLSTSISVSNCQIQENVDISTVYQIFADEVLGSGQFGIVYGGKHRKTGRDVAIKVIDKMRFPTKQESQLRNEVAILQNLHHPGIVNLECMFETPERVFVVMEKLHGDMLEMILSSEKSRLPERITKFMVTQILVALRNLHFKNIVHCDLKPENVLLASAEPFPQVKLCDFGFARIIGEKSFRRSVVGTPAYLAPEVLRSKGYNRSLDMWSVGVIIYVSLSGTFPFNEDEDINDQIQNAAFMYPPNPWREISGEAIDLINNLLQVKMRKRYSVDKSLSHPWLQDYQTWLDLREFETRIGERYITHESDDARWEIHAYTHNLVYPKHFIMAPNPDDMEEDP

[5] = target: T2, Serine/threonine-protein kinase Nek11 (Homo sapiens) (UniProt Q8NG66); assay: Selectivity interaction (KinomeScan (DiscoverX)) EUB0001079a NEK11; settings: at 1 µM
T2 sequence (whole entry): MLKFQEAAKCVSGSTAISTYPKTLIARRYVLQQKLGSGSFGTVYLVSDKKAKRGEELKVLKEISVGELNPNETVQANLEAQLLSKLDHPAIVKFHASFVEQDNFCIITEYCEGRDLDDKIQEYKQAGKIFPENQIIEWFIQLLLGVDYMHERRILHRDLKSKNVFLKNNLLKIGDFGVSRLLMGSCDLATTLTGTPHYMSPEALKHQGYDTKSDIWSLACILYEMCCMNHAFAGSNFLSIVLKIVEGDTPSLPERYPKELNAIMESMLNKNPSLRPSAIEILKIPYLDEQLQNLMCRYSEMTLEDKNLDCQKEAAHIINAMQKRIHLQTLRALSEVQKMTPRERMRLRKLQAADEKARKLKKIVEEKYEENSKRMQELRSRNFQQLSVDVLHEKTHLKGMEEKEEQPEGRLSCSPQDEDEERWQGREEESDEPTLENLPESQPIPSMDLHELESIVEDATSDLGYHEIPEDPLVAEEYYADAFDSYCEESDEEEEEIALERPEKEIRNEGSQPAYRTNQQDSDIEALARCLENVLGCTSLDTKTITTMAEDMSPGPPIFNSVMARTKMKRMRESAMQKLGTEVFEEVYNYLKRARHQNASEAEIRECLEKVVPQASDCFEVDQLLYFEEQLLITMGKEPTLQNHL

[6] = target: NT-3 growth factor receptor (Homo sapiens, UniProt Q16288); assay: Selectivity interaction (KinomeScan (DiscoverX)) EUB0001079a NTRK3; settings: at 1 µM
Chain of NT-3 growth factor receptor (Q16288 32-839 limits assumed): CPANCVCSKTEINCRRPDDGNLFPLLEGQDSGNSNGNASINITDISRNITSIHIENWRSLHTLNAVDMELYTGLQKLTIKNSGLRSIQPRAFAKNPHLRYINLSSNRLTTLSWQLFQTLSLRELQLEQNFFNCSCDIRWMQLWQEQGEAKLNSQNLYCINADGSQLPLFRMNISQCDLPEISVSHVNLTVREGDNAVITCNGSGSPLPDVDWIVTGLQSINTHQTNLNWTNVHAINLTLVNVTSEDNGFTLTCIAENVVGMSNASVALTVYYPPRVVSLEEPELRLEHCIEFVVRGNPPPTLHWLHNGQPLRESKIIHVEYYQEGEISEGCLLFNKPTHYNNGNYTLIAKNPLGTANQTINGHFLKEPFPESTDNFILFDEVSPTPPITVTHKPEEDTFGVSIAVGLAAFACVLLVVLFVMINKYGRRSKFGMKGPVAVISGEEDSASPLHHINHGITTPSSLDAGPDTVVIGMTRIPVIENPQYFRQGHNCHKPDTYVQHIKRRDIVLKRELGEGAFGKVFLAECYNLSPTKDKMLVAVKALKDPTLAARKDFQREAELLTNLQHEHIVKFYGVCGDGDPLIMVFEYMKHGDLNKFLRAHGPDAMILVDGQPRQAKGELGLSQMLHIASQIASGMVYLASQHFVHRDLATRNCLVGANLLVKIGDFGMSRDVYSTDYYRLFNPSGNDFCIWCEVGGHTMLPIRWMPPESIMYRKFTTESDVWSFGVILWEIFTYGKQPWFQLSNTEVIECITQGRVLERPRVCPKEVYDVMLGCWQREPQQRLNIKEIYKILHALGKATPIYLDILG

[7] = target: cAMP-dependent protein kinase catalytic subunit alpha (Homo sapiens, UniProt P17612); assay: Selectivity interaction (Kinase panel (33PanQinase(R) Activity Assay)) EUB0000877a PRKACA
[8] = target: 5'-AMP-activated protein kinase catalytic subunit alpha-2 (Homo sapiens) (UniProt P54646); assay: Selectivity interaction (ActivX KiNativ screen (kinase selectivity in THP-1 cell lysates)) EUB0000639a PRKAA2; assay type: subcellular; settings: lysate, at 0.01 µM
Chain of 5'-AMP-activated protein kinase catalytic subunit alpha-2 (Homo sapiens) (P54646 whole entry, looked up): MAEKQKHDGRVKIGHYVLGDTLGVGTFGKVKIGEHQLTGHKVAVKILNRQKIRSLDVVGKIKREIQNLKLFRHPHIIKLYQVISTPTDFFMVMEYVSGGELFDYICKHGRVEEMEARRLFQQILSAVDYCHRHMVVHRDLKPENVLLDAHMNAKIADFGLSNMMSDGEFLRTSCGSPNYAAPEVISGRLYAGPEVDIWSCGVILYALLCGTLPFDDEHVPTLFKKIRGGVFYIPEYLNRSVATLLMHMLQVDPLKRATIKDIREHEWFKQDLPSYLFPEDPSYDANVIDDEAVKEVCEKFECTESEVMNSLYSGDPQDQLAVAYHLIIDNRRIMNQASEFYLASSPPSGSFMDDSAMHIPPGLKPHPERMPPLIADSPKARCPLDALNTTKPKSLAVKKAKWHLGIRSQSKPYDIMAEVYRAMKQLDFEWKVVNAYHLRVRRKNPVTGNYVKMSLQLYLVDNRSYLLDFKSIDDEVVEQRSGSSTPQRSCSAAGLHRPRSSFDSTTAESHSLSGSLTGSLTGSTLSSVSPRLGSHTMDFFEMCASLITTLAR

[9] = target: Tyrosine-protein kinase Lyn (Homo sapiens, UniProt P07948); assay: Selectivity interaction (KinomeScan (DiscoverX)) EUB0000595a LYN; settings: at 10 µM
[10] = target: Phosphatidylinositol 4-phosphate 5-kinase type-1 alpha (Homo sapiens) (UniProt Q99755); assay: Selectivity interaction (KinomeScan (DiscoverX)) EUB0000092b PIP5K1A; settings: at 10 µM
Chain of Phosphatidylinositol 4-phosphate 5-kinase type-1 alpha (Homo sapiens) (Q99755 whole entry): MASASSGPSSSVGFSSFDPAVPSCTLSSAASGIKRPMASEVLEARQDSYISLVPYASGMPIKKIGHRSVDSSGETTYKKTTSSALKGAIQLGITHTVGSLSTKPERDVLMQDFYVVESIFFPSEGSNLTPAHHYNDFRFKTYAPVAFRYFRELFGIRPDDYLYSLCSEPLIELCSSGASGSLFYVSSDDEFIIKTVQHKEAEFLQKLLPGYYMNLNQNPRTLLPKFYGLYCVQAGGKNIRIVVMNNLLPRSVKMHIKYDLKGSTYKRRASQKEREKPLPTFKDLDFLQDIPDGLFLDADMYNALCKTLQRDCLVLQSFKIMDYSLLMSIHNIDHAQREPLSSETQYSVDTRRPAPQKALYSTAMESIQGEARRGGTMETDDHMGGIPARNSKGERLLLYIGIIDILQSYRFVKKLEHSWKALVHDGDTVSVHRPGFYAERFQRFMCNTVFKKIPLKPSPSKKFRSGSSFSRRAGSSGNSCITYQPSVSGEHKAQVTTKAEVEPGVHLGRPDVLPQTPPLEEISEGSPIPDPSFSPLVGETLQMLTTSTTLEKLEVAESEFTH

[11] = target: Tyrosine-protein kinase JAK1 (Homo sapiens, UniProt P23458); assay: Selectivity interaction (KinomeScan (DiscoverX)) EUB0000045b JAK1; settings: at 10 µM
Chain of Tyrosine-protein kinase JAK1 (P23458 whole entry): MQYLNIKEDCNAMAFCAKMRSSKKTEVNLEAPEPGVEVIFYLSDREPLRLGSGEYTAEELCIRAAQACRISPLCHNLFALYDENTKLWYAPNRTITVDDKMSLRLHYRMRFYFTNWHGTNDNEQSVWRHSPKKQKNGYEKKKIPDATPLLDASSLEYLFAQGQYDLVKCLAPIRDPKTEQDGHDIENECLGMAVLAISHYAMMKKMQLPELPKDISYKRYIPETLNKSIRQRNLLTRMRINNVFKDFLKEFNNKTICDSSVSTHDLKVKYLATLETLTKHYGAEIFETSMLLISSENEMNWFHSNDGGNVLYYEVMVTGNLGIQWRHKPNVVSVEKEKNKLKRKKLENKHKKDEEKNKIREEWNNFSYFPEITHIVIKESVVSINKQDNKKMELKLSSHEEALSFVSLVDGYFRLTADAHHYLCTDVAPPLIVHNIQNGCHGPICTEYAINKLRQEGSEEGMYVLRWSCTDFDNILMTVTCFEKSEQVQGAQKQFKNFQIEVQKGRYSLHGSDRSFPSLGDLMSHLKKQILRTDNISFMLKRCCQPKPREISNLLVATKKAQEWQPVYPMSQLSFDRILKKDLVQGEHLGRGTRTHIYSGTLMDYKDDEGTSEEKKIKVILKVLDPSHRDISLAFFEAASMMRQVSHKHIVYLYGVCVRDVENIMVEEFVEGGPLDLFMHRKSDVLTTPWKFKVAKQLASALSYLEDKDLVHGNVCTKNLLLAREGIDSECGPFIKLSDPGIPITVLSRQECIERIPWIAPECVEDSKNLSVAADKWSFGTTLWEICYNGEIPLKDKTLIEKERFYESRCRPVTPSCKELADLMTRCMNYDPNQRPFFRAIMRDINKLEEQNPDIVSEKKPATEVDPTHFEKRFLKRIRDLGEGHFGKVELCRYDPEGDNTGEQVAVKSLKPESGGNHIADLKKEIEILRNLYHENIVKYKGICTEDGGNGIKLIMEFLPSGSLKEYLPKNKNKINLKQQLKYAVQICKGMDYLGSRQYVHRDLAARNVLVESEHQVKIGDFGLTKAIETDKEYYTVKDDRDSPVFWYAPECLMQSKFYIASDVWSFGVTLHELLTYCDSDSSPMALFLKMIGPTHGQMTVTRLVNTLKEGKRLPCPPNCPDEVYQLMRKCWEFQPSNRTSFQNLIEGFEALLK

[12] = target: T3, Serine/threonine-protein kinase 17B (Homo sapiens) (UniProt O94768); assay: Selectivity interaction (LanthaScreen Eu Kinase Binding Assay) EUB0001632a STK17B; settings: at 10 µM
T3 sequence (whole entry): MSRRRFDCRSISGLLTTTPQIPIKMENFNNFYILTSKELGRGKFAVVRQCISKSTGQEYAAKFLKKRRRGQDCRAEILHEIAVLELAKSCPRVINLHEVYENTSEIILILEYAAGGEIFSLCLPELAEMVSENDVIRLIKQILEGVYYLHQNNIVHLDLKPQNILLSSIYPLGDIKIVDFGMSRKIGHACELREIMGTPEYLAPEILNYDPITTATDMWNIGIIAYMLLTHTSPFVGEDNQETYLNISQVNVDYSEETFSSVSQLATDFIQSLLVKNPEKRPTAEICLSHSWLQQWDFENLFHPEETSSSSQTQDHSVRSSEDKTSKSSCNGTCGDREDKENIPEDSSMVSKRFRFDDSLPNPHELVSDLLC

Chain of cGMP-inhibited 3',5'-cyclic phosphodiesterase 3A (Q14432 whole entry): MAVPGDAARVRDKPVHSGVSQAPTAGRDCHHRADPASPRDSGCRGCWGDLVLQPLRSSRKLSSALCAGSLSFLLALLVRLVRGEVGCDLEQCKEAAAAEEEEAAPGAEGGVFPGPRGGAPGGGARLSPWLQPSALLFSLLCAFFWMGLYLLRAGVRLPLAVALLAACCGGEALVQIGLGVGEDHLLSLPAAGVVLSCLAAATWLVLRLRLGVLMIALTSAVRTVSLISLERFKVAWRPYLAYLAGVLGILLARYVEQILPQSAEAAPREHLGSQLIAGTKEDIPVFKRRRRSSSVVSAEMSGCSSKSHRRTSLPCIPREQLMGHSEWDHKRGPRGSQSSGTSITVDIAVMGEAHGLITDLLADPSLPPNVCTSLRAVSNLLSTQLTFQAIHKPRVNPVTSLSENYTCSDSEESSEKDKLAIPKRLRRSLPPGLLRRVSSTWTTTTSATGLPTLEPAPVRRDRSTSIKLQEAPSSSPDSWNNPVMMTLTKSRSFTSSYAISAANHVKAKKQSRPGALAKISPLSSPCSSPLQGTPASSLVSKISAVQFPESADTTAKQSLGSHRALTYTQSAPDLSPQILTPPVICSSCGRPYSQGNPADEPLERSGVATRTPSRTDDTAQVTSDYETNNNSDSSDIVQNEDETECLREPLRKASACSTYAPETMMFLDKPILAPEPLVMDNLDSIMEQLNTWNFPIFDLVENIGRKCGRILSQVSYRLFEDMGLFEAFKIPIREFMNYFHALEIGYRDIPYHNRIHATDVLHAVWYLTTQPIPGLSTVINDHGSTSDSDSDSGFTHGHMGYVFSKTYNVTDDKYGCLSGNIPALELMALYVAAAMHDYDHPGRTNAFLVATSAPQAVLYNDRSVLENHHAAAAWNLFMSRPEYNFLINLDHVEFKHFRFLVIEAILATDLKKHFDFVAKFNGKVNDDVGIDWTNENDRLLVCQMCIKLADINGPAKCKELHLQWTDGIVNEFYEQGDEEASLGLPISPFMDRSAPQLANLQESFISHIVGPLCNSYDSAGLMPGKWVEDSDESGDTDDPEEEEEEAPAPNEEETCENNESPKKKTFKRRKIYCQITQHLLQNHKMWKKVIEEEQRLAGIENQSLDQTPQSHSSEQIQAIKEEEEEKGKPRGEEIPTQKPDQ

CN(C)C(=O)Cn1cc(-c2ccc(-c3cncc4ccccc34)cc2)cn1
% of control [1]: 82%

O=C(NOC[C@H](O)CO)c1ccc(F)c(F)c1Nc1ccc(I)cc1F
% of control [2]: 94%

COc1cc(N(C)c2ccnc3ccc(C(F)(F)F)cc23)cc(OC)c1OC
% binding [3]: 69%
% binding [4]: 58%

Nc1cnc(N2CCc3cc(S(=O)(=O)Nc4c(F)cc(Cl)cc4F)cc(N4CCCC4=O)c32)nc1 [TP-020n]
% of control [5]: 100%
% of control [6]: 97%

CCC(=O)N1CC[C@H](Nc2ncnc3c2CN(c2cnc(OC)c(C(F)(F)F)c2)CC3)C1 [LENIOLISIB]
IC50 [7]: > 10 µM

CC[C@@H]1[C@H](F)C(=O)N[C@@H]1COc1nccc2cc(C(N)=O)c(OC)cc12 [ZIMLOVISERTIB]
% of inhibition [8]: 14.5%

COCC(=O)NC/C=C/c1ccc2ncnc(Nc3ccc(Oc4ccc(C)nc4)c(C)c3)c2c1 [CP-724714]
% of control [9]: 92%

CCC(=O)N1CCN(c2ccc(-n3c(=O)ccc4cnc5ccc(-c6cnc7ccccc7c6)cc5c43)cc2C(F)(F)F)CC1
% of control [10]: 89%

C=CC(=O)Nc1cc(-n2c(=O)ccc3cnc4ccc(-c5ccc(NS(C)(=O)=O)cc5)cc4c32)ccc1C
% of control [11]: 93%

Cn1cc(-n2cnc3c(NCc4nc5cc(Cl)c(Cl)cc5[nH]4)nc(N4CCOCC4)nc32)cn1
% of inhibition [12]: -19.1%
